Laboratory results from patent US12227500B2, “Substituted pyrrolo[2,3-b]pyridines for suppressing toxic endoplasmic reticulum stress” (THE TRUSTEES OF COLUMBIA UNIVERSITY IN THE CITY OF NEW YORK, priority 2018, dated 2025).
Entries after “also recorded” stand apart in the source; their conditions may differ.

Experiments:
HGK/MAP4K4 = HGK/MAP4K4 (Homo sapiens, UniProt O95819); settings: cited from earlier work
[1] = system: mouse ES-derived motor neurons; test: Western blot of JNK pathway activation in CPA-treated motor neurons; format: cell-based; settings: 4 h
Procedure: Mouse ES-derived motor neurons were treated with CPA, CPA+ compound 1, or vehicle control (DMSO) for four hours. Cells were then lysed to extract proteins.
Samples were harvested after 4 h of treatment. N=samples from 3 separate motor neuron differentiations treated and lysed separately. Cells from each differentiation were split into three samples, one for each treatment condition. All samples were run concurrently on the same blot. All band intensities were normalized to GAPDH to control for loading, then DMSO and CPA+Compound 1 values were normalized to CPA values for each n. One-way ANOVAs were used to evaluate the overall effects of treatment on JNK phosphorylation (P=0.0009; F=28.33; R2=0.9042) and c-Jun phosphorylation (P<0.0001; F=101.9; R2=0.9714).
Whole mouse embryoid bodies at day 6 of differentiation were treated with CPA (10 μM) and test compounds for 4 h, then lysed and sonicated in ice-cold buffer containing HEPES (50 mM), NaCl (100 mM), Triton-X (1%), SDS (0.1%), DTT (1 mM), EDTA (1 mM), plus protease and phosphatase inhibitor cocktail tablets (Roche). Total protein content was analyzed using a BCA kit according to the manufacturer's instructions (Pierce). […] Samples were run for 4 h at 100V at 4°, then transferred to nitrocellulose membranes using an iBlot dry transfer system (Thermo Fisher). Membranes were blocked with tris-buffered saline (TBS) containing 5% BSA (Cell Signaling Technologies), then incubated with primary antibodies in a buffer containing 5% BSA and 0.1% Tween in TBS overnight at 4°. Primary antibodies against phospho-c-Jun (serine 63; Cell Signaling Technologies #9261) were added at 1:500; primary antibodies against phospho-JNK (thr183/tyr185; Cell Signaling Technologies #4688) were added at 1:1000; primary antibodies against GAPDH (Santa Cruz Biotechnologies) were added at 1:1000 as a loading control. Following washes in TBS containing 0.1% Tween, membranes were incubated in goat anti-rabbit HRP-conjugated secondary antibody solutions (1:10,000; Santa Cruz Biotechnologies) for 1 hr. Membranes were then washed again in TBS containing 0.1% Tween, then incubated in Femto ECL (Pierce) for 5 min. Chemiluminescence was visualized using a LiCor Odyssey. Phospho-c-Jun and phopsho-JNK band intensities were normalized to GAPDH.

[2] = system: human stem cell-derived motor neurons derived from a healthy patient; test: CPA survival assay, wild-type human stem cell-derived motor neurons; settings: CPA 33 μM; at 1.2 μM (PF-6260933), 2.4 μM (GNE-495), 0.6 μM (URMC-099)

HGK/MAP4K4, sequence (O95819 whole entry, species assumed): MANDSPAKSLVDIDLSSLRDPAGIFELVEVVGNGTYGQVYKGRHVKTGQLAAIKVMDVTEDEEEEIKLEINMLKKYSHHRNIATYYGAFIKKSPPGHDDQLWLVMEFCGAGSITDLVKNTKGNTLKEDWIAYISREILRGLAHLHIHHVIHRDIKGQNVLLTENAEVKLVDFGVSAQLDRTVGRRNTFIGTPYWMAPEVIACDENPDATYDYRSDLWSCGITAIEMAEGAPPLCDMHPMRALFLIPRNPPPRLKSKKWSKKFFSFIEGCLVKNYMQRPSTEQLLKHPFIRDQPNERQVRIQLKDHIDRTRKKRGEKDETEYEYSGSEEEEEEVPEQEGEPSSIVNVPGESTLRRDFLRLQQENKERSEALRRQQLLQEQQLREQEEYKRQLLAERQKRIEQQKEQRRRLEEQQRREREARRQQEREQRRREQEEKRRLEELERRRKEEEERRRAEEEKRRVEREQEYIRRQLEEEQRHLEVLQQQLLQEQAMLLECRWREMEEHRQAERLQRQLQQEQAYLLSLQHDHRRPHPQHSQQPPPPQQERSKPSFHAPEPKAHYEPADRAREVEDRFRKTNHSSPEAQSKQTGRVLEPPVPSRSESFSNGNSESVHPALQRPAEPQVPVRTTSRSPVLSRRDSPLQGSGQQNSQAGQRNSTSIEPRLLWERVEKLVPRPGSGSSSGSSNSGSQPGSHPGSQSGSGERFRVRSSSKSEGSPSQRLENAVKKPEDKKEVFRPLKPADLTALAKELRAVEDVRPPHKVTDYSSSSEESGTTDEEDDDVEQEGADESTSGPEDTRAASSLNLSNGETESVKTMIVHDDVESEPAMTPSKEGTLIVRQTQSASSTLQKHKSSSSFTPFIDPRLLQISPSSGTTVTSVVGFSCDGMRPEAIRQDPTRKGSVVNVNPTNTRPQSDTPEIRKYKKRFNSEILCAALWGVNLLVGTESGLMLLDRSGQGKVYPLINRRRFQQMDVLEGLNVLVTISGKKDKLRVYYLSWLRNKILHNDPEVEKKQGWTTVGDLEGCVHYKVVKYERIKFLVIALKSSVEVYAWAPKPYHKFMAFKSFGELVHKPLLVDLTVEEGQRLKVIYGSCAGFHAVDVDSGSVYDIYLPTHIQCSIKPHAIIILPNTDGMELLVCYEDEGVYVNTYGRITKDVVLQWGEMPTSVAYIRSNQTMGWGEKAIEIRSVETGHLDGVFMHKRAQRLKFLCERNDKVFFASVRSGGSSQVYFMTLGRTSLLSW

Q: What does the source list for `CN1CCN(Cc2ccc(-c3cnc4[nH]cc(-c5ccc6[nH]ccc6c5)c4c3)cc2)CC1` [Compound 1, 3-(1H-Indol-5-yl)-5-(4-((4-methylpiperazin-1-yl)methyl)phenyl)-1H-pyrrolo[2,3-b]pyridine, reference compound]?
A: HGK enzyme activity remaining (HGK/MAP4K4; 1 μM treatment): 0.54%; inhibition of HGK activity in a cell-free assay (HGK/MAP4K4; 1 μM, Goodfellow et al. 2013): > 99%; JNK phosphorylation in CPA-treated motor neurons [1]: strongly attenuated; also recorded: significantly decreased JNK phosphorylation; MKK4 phosphorylation in CPA-treated MNs [1]: strongly attenuated; c-Jun phosphorylation in CPA-treated motor neurons [1]: strongly suppressed; also recorded: below the threshold of detection; caspase 3 cleavage in CPA-treated MNs [1]: strongly suppressed; motor neuron survival restored, % of vehicle controls (maximum) [2]: 90%
